# Experimental data taken from PubChem BioAssay (NCI).
#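 Results reflect a 48-hour exposure of cells in 96-well plates to compound at five concentrations. TGI is the concentration that stops growth completely.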
# Tested on: UACC-257 melanoma
# Assay: DTP human tumour cell line panel, 48 h
row,SMILES,TGI [µM]
1,CC(=O)C(=[N+]=[N-])C(=O)NCC#N,> 10
2,O=C(c1ccccc1)c1ccc2nc3n(c2c1)C(c1c(F)cccc1F)SC3 (stereo not given),91.1
3,COc1nc(C)nc2sc3c(c12)CCCC3,> 100
4,C=C(Cl)c1c(OC)cccc1OCc1ccccc1,40.6
5,Nc1nc(Cl)c(N)c(NCC2(CO)CCC2)n1,> 100
6,c1ccc2c(C3CCN(CCN4CCOCC4)C3)c[nH]c2c1 (stereo not given),> 100
7,COc1ccc(OC)c2sc(N3C(=O)/C(=C/c4ccc(Cl)cc4)N=C3c3ccccc3)nc12,> 100

# Tested on: SK-MEL-5 melanoma
# Assay: DTP human tumour cell line panel, 48 h
row,SMILES,TGI [µM]
1,CC(=O)C(=[N+]=[N-])C(=O)NCC#N,> 10
2,O=C(c1ccccc1)c1ccc2nc3n(c2c1)C(c1c(F)cccc1F)SC3 (stereo not given),18.1
3,COc1nc(C)nc2sc3c(c12)CCCC3,> 100
4,C=C(Cl)c1c(OC)cccc1OCc1ccccc1,> 100
5,Nc1nc(Cl)c(N)c(NCC2(CO)CCC2)n1,> 100
6,c1ccc2c(C3CCN(CCN4CCOCC4)C3)c[nH]c2c1 (stereo not given),> 100
7,COc1ccc(OC)c2sc(N3C(=O)/C(=C/c4ccc(Cl)cc4)N=C3c3ccccc3)nc12,> 100

# Tested on: NCI/ADR-RES ovarian
# Assay: DTP human tumour cell line panel, 48 h
row,SMILES,TGI [µM]
1,CC(=O)C(=[N+]=[N-])C(=O)NCC#N,> 10
2,O=C(c1ccccc1)c1ccc2nc3n(c2c1)C(c1c(F)cccc1F)SC3 (stereo not given),26.5
3,COc1nc(C)nc2sc3c(c12)CCCC3,> 100
4,C=C(Cl)c1c(OC)cccc1OCc1ccccc1,> 100
5,Nc1nc(Cl)c(N)c(NCC2(CO)CCC2)n1,> 100
6,c1ccc2c(C3CCN(CCN4CCOCC4)C3)c[nH]c2c1 (stereo not given),> 100
7,COc1ccc(OC)c2sc(N3C(=O)/C(=C/c4ccc(Cl)cc4)N=C3c3ccccc3)nc12,> 100

# Tested on: HL-60(TB) leukemia
# Assay: DTP human tumour cell line panel, 48 h
row,SMILES,TGI [µM]
1,CC(=O)C(=[N+]=[N-])C(=O)NCC#N,> 10
2,O=C(c1ccccc1)c1ccc2nc3n(c2c1)C(c1c(F)cccc1F)SC3 (stereo not given),> 100
3,COc1nc(C)nc2sc3c(c12)CCCC3,> 100
4,C=C(Cl)c1c(OC)cccc1OCc1ccccc1,> 100
5,Nc1nc(Cl)c(N)c(NCC2(CO)CCC2)n1,> 100
6,c1ccc2c(C3CCN(CCN4CCOCC4)C3)c[nH]c2c1 (stereo not given),> 100
7,COc1ccc(OC)c2sc(N3C(=O)/C(=C/c4ccc(Cl)cc4)N=C3c3ccccc3)nc12,> 100

# Tested on: U251 CNS
# Assay: DTP human tumour cell line panel, 48 h
row,SMILES,TGI [µM]
1,CC(=O)C(=[N+]=[N-])C(=O)NCC#N,> 10
2,O=C(c1ccccc1)c1ccc2nc3n(c2c1)C(c1c(F)cccc1F)SC3 (stereo not given),> 63.4
3,COc1nc(C)nc2sc3c(c12)CCCC3,> 100
4,C=C(Cl)c1c(OC)cccc1OCc1ccccc1,> 100
5,Nc1nc(Cl)c(N)c(NCC2(CO)CCC2)n1,> 100
6,c1ccc2c(C3CCN(CCN4CCOCC4)C3)c[nH]c2c1 (stereo not given),> 100
7,COc1ccc(OC)c2sc(N3C(=O)/C(=C/c4ccc(Cl)cc4)N=C3c3ccccc3)nc12,> 100

# Tested on: UACC-62 melanoma
# Assay: DTP human tumour cell line panel, 48 h
row,SMILES,TGI [µM]
1,CC(=O)C(=[N+]=[N-])C(=O)NCC#N,> 10
2,O=C(c1ccccc1)c1ccc2nc3n(c2c1)C(c1c(F)cccc1F)SC3 (stereo not given),21.3
3,COc1nc(C)nc2sc3c(c12)CCCC3,> 100
4,C=C(Cl)c1c(OC)cccc1OCc1ccccc1,> 100
5,Nc1nc(Cl)c(N)c(NCC2(CO)CCC2)n1,> 100
6,c1ccc2c(C3CCN(CCN4CCOCC4)C3)c[nH]c2c1 (stereo not given),> 100
7,COc1ccc(OC)c2sc(N3C(=O)/C(=C/c4ccc(Cl)cc4)N=C3c3ccccc3)nc12,> 100

# Tested on: BT-549 breast
# Assay: DTP human tumour cell line panel, 48 h
row,SMILES,TGI [µM]
1,CC(=O)C(=[N+]=[N-])C(=O)NCC#N,> 10
2,O=C(c1ccccc1)c1ccc2nc3n(c2c1)C(c1c(F)cccc1F)SC3 (stereo not given),> 100
3,COc1nc(C)nc2sc3c(c12)CCCC3,> 100
4,C=C(Cl)c1c(OC)cccc1OCc1ccccc1,> 100
5,Nc1nc(Cl)c(N)c(NCC2(CO)CCC2)n1,> 100
6,c1ccc2c(C3CCN(CCN4CCOCC4)C3)c[nH]c2c1 (stereo not given),> 100
7,COc1ccc(OC)c2sc(N3C(=O)/C(=C/c4ccc(Cl)cc4)N=C3c3ccccc3)nc12,> 100

# Tested on: SW-620 colon
# Assay: DTP human tumour cell line panel, 48 h
row,SMILES,TGI [µM]
1,CC(=O)C(=[N+]=[N-])C(=O)NCC#N,> 10
2,O=C(c1ccccc1)c1ccc2nc3n(c2c1)C(c1c(F)cccc1F)SC3 (stereo not given),> 100
3,COc1nc(C)nc2sc3c(c12)CCCC3,> 100
4,C=C(Cl)c1c(OC)cccc1OCc1ccccc1,> 100
5,Nc1nc(Cl)c(N)c(NCC2(CO)CCC2)n1,> 100
6,c1ccc2c(C3CCN(CCN4CCOCC4)C3)c[nH]c2c1 (stereo not given),> 100
7,COc1ccc(OC)c2sc(N3C(=O)/C(=C/c4ccc(Cl)cc4)N=C3c3ccccc3)nc12,> 100

# Tested on: SR leukemia
# Assay: DTP human tumour cell line panel, 48 h
row,SMILES,TGI [µM]
1,CC(=O)C(=[N+]=[N-])C(=O)NCC#N,> 10
2,O=C(c1ccccc1)c1ccc2nc3n(c2c1)C(c1c(F)cccc1F)SC3 (stereo not given),9.4
3,COc1nc(C)nc2sc3c(c12)CCCC3,> 100
4,C=C(Cl)c1c(OC)cccc1OCc1ccccc1,> 100
5,Nc1nc(Cl)c(N)c(NCC2(CO)CCC2)n1,> 100
6,c1ccc2c(C3CCN(CCN4CCOCC4)C3)c[nH]c2c1 (stereo not given),> 100
7,COc1ccc(OC)c2sc(N3C(=O)/C(=C/c4ccc(Cl)cc4)N=C3c3ccccc3)nc12,> 100

# Tested on: K-562 leukemia
# Assay: DTP human tumour cell line panel, 48 h
row,SMILES,TGI [µM]
1,CC(=O)C(=[N+]=[N-])C(=O)NCC#N,> 10
2,O=C(c1ccccc1)c1ccc2nc3n(c2c1)C(c1c(F)cccc1F)SC3 (stereo not given),> 100
3,COc1nc(C)nc2sc3c(c12)CCCC3,> 100
4,C=C(Cl)c1c(OC)cccc1OCc1ccccc1,> 100
5,Nc1nc(Cl)c(N)c(NCC2(CO)CCC2)n1,> 100
6,c1ccc2c(C3CCN(CCN4CCOCC4)C3)c[nH]c2c1 (stereo not given),> 100
7,COc1ccc(OC)c2sc(N3C(=O)/C(=C/c4ccc(Cl)cc4)N=C3c3ccccc3)nc12,86.6

# Tested on: RPMI-8226 leukemia
# Assay: DTP human tumour cell line panel, 48 h
row,SMILES,TGI [µM]
1,CC(=O)C(=[N+]=[N-])C(=O)NCC#N,> 10
2,O=C(c1ccccc1)c1ccc2nc3n(c2c1)C(c1c(F)cccc1F)SC3 (stereo not given),> 100
3,COc1nc(C)nc2sc3c(c12)CCCC3,> 100
4,C=C(Cl)c1c(OC)cccc1OCc1ccccc1,> 100
5,Nc1nc(Cl)c(N)c(NCC2(CO)CCC2)n1,> 100
6,c1ccc2c(C3CCN(CCN4CCOCC4)C3)c[nH]c2c1 (stereo not given),> 100
7,COc1ccc(OC)c2sc(N3C(=O)/C(=C/c4ccc(Cl)cc4)N=C3c3ccccc3)nc12,> 100

# Tested on: MALME-3M melanoma
# Assay: DTP human tumour cell line panel, 48 h
row,SMILES,TGI [µM]
1,CC(=O)C(=[N+]=[N-])C(=O)NCC#N,> 10
2,O=C(c1ccccc1)c1ccc2nc3n(c2c1)C(c1c(F)cccc1F)SC3 (stereo not given),46.7
3,COc1nc(C)nc2sc3c(c12)CCCC3,> 100
4,C=C(Cl)c1c(OC)cccc1OCc1ccccc1,> 100
5,Nc1nc(Cl)c(N)c(NCC2(CO)CCC2)n1,> 100
6,c1ccc2c(C3CCN(CCN4CCOCC4)C3)c[nH]c2c1 (stereo not given),> 100
7,COc1ccc(OC)c2sc(N3C(=O)/C(=C/c4ccc(Cl)cc4)N=C3c3ccccc3)nc12,> 100

# Tested on: NCI-H522 lung
# Assay: DTP human tumour cell line panel, 48 h
row,SMILES,TGI [µM]
1,CC(=O)C(=[N+]=[N-])C(=O)NCC#N,> 10
2,O=C(c1ccccc1)c1ccc2nc3n(c2c1)C(c1c(F)cccc1F)SC3 (stereo not given),6.14
3,COc1nc(C)nc2sc3c(c12)CCCC3,> 100
4,C=C(Cl)c1c(OC)cccc1OCc1ccccc1,> 100
5,Nc1nc(Cl)c(N)c(NCC2(CO)CCC2)n1,> 100
6,c1ccc2c(C3CCN(CCN4CCOCC4)C3)c[nH]c2c1 (stereo not given),> 100
7,COc1ccc(OC)c2sc(N3C(=O)/C(=C/c4ccc(Cl)cc4)N=C3c3ccccc3)nc12,> 100

# Tested on: MDA-N
# Assay: DTP human tumour cell line panel, 48 h
row,SMILES,TGI [µM]
1,CC(=O)C(=[N+]=[N-])C(=O)NCC#N,> 10
2,O=C(c1ccccc1)c1ccc2nc3n(c2c1)C(c1c(F)cccc1F)SC3 (stereo not given),3.43
3,COc1nc(C)nc2sc3c(c12)CCCC3,> 100
4,C=C(Cl)c1c(OC)cccc1OCc1ccccc1,> 100
5,Nc1nc(Cl)c(N)c(NCC2(CO)CCC2)n1,> 100
6,c1ccc2c(C3CCN(CCN4CCOCC4)C3)c[nH]c2c1 (stereo not given),> 100
7,COc1ccc(OC)c2sc(N3C(=O)/C(=C/c4ccc(Cl)cc4)N=C3c3ccccc3)nc12,> 100

# Tested on: T-47D breast
# Assay: DTP human tumour cell line panel, 48 h
row,SMILES,TGI [µM]
1,CC(=O)C(=[N+]=[N-])C(=O)NCC#N,> 10
2,O=C(c1ccccc1)c1ccc2nc3n(c2c1)C(c1c(F)cccc1F)SC3 (stereo not given),33
